Type in all cases: cell-based
One series concerns rat erythrocytes. The protocol:
In further embodiment of the present invention, hemolytic activity of the peptides was assessed on freshly isolated rat erythrocytes. Heparinized rat blood in saline was initially centrifuged at 1000×g for 10 min to remove the buffy coat. The erythrocyte suspension was further washed thrice with 5 mM Hepes, pH 7.4 containing 150 mM NaCl. Aliquots of cell suspension ( 10^6 cells) in eppendorf tubes were incubated with the peptide in […]° C. for 30 min with gentle mixing. The tubes were then centrifuged and the absorbance of the supernatants was measured at 540 nm. The lysis obtained with 1% triton X 100 was taken as 100%. FIG. 5. Hemolysis of rat erythrocytes as a function of peptide concentration concentration Erythrocytes (-10^6/ml) were incubated in Hepes buffered isotonic saline containing various concentrations of SPFK analogs. SPFK (A). Other symbols same as that in FIG. 1.

The next series has as its system E. coli. Briefly: Bactericidal activity by plating and colony counting. The note with it: on E. coli. The protocol: (§1) In further embodiment of the present invention, for determining antimicrobial activity, antimicrobial activity was assayed as follows: Different concentrations of peptides were added to 1 ml of synthetic medium [KH2PO4, 10.5 g; K2HPC>4, 4.5 g; (NH4)2SO4, 1 g; MgSO4, 0.1 g; L-arginine, 0.1 g and glucose 1% for one litre of medium] for E. coli or nutrient broth for other microorganisms, containing an inocula of the test organism adjusted to ˜10^6 CFU/ml. Microbial growth was determined by monitoring the increase in ODeoo after incubating under aerobic conditions at 37° C. for 6-8 h (30° C. for P. aeruginosa). The bactericidal activity of the peptides was determined by plating suitably diluted cultures after incubation with the peptides on nutrient agar plates. The plates were incubated at 37° C. for 18 h for colony counting. Outer membrane permeabilization assays were done by fluorescent monitoring of uptake of N-phenyl-1-N-naphthyl amine (NPN) (26). […] The excitation monochromator was set at 350 nm and emission at 420 nm was continuously monitored after addition of the peptide from an aqueous stock solution. […] Inner membrane permeability of E. coli W 160.37 was monitored by measuring the p-galactosidase activity in preinduced cells (with 5×10′^4 M IPTG), in the presence of different concentration of the peptide using 0-nitro phenyl-3-D-galactoside (ONPG)(27).

Another series concerns microorganisms tested. In words: Antimicrobial activity (growth inhibition, MIC). As to conditions: growth of the microorganisms tested. The protocol: as §1

Structures are written as SMILES. Entries after “also recorded” stand apart in the source; their conditions may differ. Square brackets hold non-standard residues; d marks the D form. Peptide text beside a SMILES is read from it. Where only a bound is given, the exact number is not on record here.

For the molecule `CC[C@H](C)[C@H](NC(=O)[C@H](Cc1c[nH]c2ccccc12)NC(=O)[C@H](CCCCN)NC(=O)[C@H](CO)NC(=O)[C@@H](CC(C)C)NC(=O)[C@H](Cc1ccccc1)NC(=O)[C@@H](NC(=O)[C@H](CCCCN)NC(=O)[C@@H](CC(C)C)NC(=O)[C@H](CC(C)C)NC(=O)[C@H](CCCCN)NC(=O)[C@@H]1CCCN1)[C@@H](C)O)C(=O)NCC(=O)O` [DSac] (H-PKL[dL]KTF[dL]SKWIG-OH), the “hemolytic activity (in words)” value in the series on rat erythrocytes was “very little hemolytic activity”.

`CC[C@H](C)[C@H](NC(=O)[C@H](Cc1c[nH]c2ccccc12)NC(=O)[C@H](CCCCN)NC(=O)[C@H](CO)NC(=O)[C@@H](CC(C)C)NC(=O)[C@H](Cc1ccccc1)NC(=O)[C@@H](NC(=O)[C@H](CCCCN)NC(=O)[C@@H](CC(C)C)NC(=O)[C@H](CC(C)C)NC(=O)[C@H](CCCCN)NC(=O)[C@@H]1CCCN1)[C@@H](C)O)C(=O)NCC(N)=O` [DSam] (H-PKL[dL]KTF[dL]SKWIG-NH2; N-terminus assumed): in the series with E. coli, the bactericidal concentration was over 50 µg/mL and the bacteriostatic concentration is 30 µg/L. In addition, in the series with microorganisms tested, the “antimicrobial activity / MIC (in words)” value is “exhibits activity with MIC's comparable to that of SPFK and its retro isomers; also recorded: MICs comparable to that of SPFK and the retro analogs”.

Source of the values: patent US20030186888A1, “Diastereo analog of peptide SPFK-amide with selective anti-microbial activity and a method thereof” (priority 2002, published 2003).
